Assay results from patent US11744844B2, “Selective estrogen receptor degraders” (Eli Lilly and Company, priority 2021, dated 2023).
Structures can show the parent of a compound that is named as a salt.

Key:
ERα = target: T1, ERα (Homo sapiens, UniProt P03372); test: PRα induction assay in MCF7 cells (ERα agonism); type: cell-based; conditions: MCF7 breast cancer cells, 24 hours, up to 2 μM
T1 construct: measure the degradation of ERα by a test compound in an ERα positive breast cancer cell line such as MCF7; host or cells: MCF7
T1 sequence (P03372 1-595): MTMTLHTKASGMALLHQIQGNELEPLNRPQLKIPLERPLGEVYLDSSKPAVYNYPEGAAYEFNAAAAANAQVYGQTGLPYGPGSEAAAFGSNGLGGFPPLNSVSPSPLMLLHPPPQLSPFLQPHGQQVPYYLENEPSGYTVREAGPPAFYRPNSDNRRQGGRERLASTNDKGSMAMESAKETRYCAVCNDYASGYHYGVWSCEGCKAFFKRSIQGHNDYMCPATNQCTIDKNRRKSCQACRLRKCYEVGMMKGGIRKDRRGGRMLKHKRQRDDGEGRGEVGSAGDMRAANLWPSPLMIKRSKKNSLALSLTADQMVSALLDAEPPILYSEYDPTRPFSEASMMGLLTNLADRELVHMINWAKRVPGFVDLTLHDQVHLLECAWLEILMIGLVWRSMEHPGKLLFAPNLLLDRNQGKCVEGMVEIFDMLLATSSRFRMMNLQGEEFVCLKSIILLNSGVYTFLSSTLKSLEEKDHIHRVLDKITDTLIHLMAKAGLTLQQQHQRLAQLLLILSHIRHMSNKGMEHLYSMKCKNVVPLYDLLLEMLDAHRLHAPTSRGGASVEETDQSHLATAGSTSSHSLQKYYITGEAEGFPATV
Protocol: The purpose of the following PRα induction assay is to determine whether a test compound has agonistic activity against ERα receptor (an agonist would be expected to activate the receptor).
Culture MCF7 (purchased from ATCC HTB-22) in DMEM media supplemented with 10% FBS, 0.01 mg/mL human insulin 1 and 1% penicillin/streptomycin antibiotics and plate the cells (prior to becoming 70% confluent) in 384-well flat-bottom plates at a density of 4,000 cells per well in 20 μL volume in DMEM phenol red free media containing 10% FBS (charcoal stripped). Incubate the cells overnight in a cell culture incubator (5% CO2, 95% relative humidity at 37° C.) and allow the cells to attach to the plate. The following day dose the cells with test compound. Use an Echo 555 acoustic dispenser to prepare compound serial dilutions (1:3) in a range from 6 μM to 0.0003 μM. […]
The following day wash cells with PBS 0.05% TWEEN® 20 (2×20 μL) and incubate with secondary antibody (20 μL/well) (1:1000 dilution, Goat anti-rabbit IgM ALEXA FLUOR™ 488) in PBS 1% BSA for 105 minutes at room temperature. […] Scan plates with ACUMEN EXPLORER™ (Laser-scanning fluorescence microplate cytometer manufactured by TTP LABTECH LTD) to measure PRα. […]

[1] = system: MCF7 ESR1 Y537N mutant cells; test: Cell proliferation assay in MCF7-ESR1 Y537N-682; type: cell-based; conditions: Homo sapiens, 168 h; MCF7-ESR1 Y537N-682, seven days; read-out: Relative IC50 MCF7 ESR1 Y537N mutant cells, cell proliferation
Protocol: The purpose of the following cell proliferation assays generally is to detect whether a test compound has effects on cell proliferation.
Seed MCF7 (purchased from ATCC HTB-22) cells at a density of 2,000 cells per well in DMEM phenol red free media 10% FBS (20 μL volume) (charcoal stripped) into a clear bottom 384-well cell culture plate. Plate MCF7-ESRY537N-682 (generated by CRISPR/Cas9 gene editing of ESr1 gene in MCF7 cells, clone #682) in DMEM media supplemented with 10% FBS, and 1% penicillin/streptomycin antibiotics at a density of 1000 cells per well. Incubate the plates at 37° C. and 5% CO2. The following day dose the cells with the test compound. Use an Echo 555 acoustic dispenser to prepare test compound serial dilutions (1:3) in a range from 60 μM to 0.003 μM. Dose the cells with the addition of 5 μL from the serial dilution plate to the cell plate, producing a final DMSO concentration of 0.2% with a final test compound concentration dose range between 20 and 0.001 μM. For the maximum point use media containing 0.2% of DMSO and for the minimum point use fulvestrant diluted at 2 μM final concentrations in the growth media containing 0.2% DMSO. After dosing with the test compound, incubate the cell plates at 37° C. and 5% CO2. […] Scan the plates with ACUMEN EXPLORER™ (Laser-scanning fluorescence microplate cytometer manufactured by TTP LABTECH LTD).

What does the source list for `O=C(O)[C@H]1O[C@@H](Oc2ccc3c4c(cnc3c2)-c2ccc(C(F)(F)F)cc2O[C@@H]4c2ccc(OCCN3CC(CF)C3)cc2)[C@H](O)[C@@H](O)[C@@H]1O` [Example 2, (2S,3S,4S,5R,6S)-6-[[(5R)-5-[4-[2-[3-(Fluoromethyl)azetidin-1-yl]ethoxy]phenyl]-8-(trifluoromethyl)-5H-chromeno[4,3-c]quinolin-2-yl]oxy]-3,4,5-trihydroxy-tetrahydropyran-2-carboxylic acid]?
agonistic activity (PRα induction) (ERα): no significant agonistic activity; IC50 [1]: 1.5 ± 0.966 µM

For `O=S(=O)(O)Oc1ccc2c3c(cnc2c1)-c1ccc(C(F)(F)F)cc1O[C@@H]3c1ccc(OCCN2CC(CF)C2)cc1` [Example 1, [(5R)-5-[4-[2-[3-(Fluoromethyl)azetidin-1-yl]ethoxy]phenyl]-8-(trifluoromethyl)-5H-chromeno[4,3-c]quinolin-2-yl]hydrogen sulfate], which “agonistic activity (PRα induction)” value (ERα) is on record?
Its value is “no significant agonistic activity”.

What about the IC50 [1] of the same compound?
The IC50 was 0.702 ± 0.389 µM.
